Measured values as given in patent US8026222B2, “Methods of use of glycomimetics with replacements for hexoses and n-acetyl hexosamines” (GlycoMimetics, Inc., priority 2007, dated 2011).

Tested on: human umbilical vein endothelial cells (HUVECS)
Assay: neutrophil rolling on endothelial cell monolayers under flow conditions (rolling index)
Type: cell-based
Settings: HUVEC monolayers incubated in glycated serum protein for 4 hours, perfused with human neutrophils (FIG. 18, FIG. 19)
Experimental: Monolayers of human umbilical vein endothelial cells (HUVECS) were incubated in glycated serum proteins (FIG. 18, glycated albumin, Gly-HSA or FIG. 19, glycated hemoglobin, Gly-Hb) for 4 hours. Monolayers were then inserted into a flow chamber and the chamber was perfused with human neutrophils (10^6 cell/ml) at a flow rate corresponding to a wall shear stress of 0.9 dynes/cm^2. Digital images were acquired and analyzed to determine the rolling index (RI) which is a measure of the degree of neutrophil rolling on the endothelial cell monolayer.

glycated hemoglobin: glycated serum protein used to stimulate endothelial cells
increase in neutrophil rolling (rolling index): ~2.8 fold
